Test results taken from patent publication US8252543B2, “Method for detecting candidate alzheimer's disease drug” (Tomohiro Chiba, priority 2006, dated 2012).
“Also recorded” adds a separate entry of the source. Where no end group is shown, it is not given here.

B1: CNTF: ciliary neurotrophic factor (protein, UniProt P26441 1-200, looked up)
Ciliary neurotrophic factor: MAFTEHSPLTPHRRDLCSRSIWLARKIRSDLTALTESYVKHQGLNKNINLDSADGMPVASTDQWSELTEAERLQENLQAYRTFHVLLARLLEDQQVHFTPTEGDFHQAIHTLLLQVAAFAYQIEELMILLEYKIPRNEADGMPINVGDGGLFEKKLWGLKVLQELSQWTVRSIHDLRFISSHQTGIPARGSHYIANNKKM

What was measured:
STAT3 [1] = test: STAT3 phosphorylation in PC12 cells (immunoblot); type: cell-based; settings: CNTF 50 ng/ml, IL-6 50 ng/ml, Colivelin 100 pM
Description: (§1) To examine the ability of Colivelin to phosphorylate STAT3 in vivo, a solvent (FIGS. 3A and 3C) or Colivelin (FIGS. 3B and 3D) was administered transnasally to mice twice at 24 hours-intervals. Brain samples were collected 30 minutes after the final administration, and then fresh frozen sections were prepared therefrom. The sections were then stained with an anti-phospho-STAT3 antibody. […] To examine the effect of Colivelin to phosphorylate STAT3 in vitro, PC12 cells were treated with a vehicle (MQ), CNTF, IL-6, Humanin (HN), D-Ser14-HN (D-14), and Colivelin (Col) for […] for stimulation. Phosphorylated STAT3 and total STAT3 were detected by an immunoblot method (FIG. 3E).
PC12 cells were cultured in DNEM (Wako) containing 10% serum (10%-DMEM). For phosphorylation analysis, PC12 cells (cultured at 1.6×10^5 cells/well in a 6-well plate containing serum-free DMEM for 24 hours) were stimulated with a ciliary neurotrophic factor (CNTF, 50 ng/ml), interleukin-6 (IL-6, 50 ng/ml), HN ([…], D-Ser14-HN (D-14, 10 μM, and Colivelin (100 pM) for 15 minutes. Cells were rinsed once with PBS and then lysed in a buffer solution containing phosphatase inhibitors (50 mM Tris HCl [pH7.4], 150 mM NaCl, 1% Triton-X 100, protease inhibitors, 1 mM EDTA, and phosphatase inhibitor cocktails 1 and 2 [Sigma]). Collected samples were separated by normal SDS-PAGE and were then electrically blotted onto PVDF membranes. Detection was performed using an anti-phospho-STAT3 (1:500 dilution) antibody and horseradish peroxidase (HRP)-labeled anti-rabbit IgG antibody (BioRad Laboratories, Hercules, Calif., U.S.A.). Immunoreactive bands were visualized using ECL Western Blotting Detection Reagents (Amersham Bioscience, Uppsala, Sweden). Immunoreactive bands corresponding to total-STAT3 antibody (1:3000 dilution) were subjected to detection on the identical membrane stripped and then determined to be controls.

STAT3 [2] = test: STAT3 phosphorylation in mouse brain after transnasal Colivelin (anti-phospho-STAT3 immunohistochemistry); type: in vivo; settings: mice, transnasal twice at 24 hours-intervals, brain collected 30 minutes after final administration, vs vehicle
Description: as §1
Immunohistochemical analysis was performed as described in the document (Yamada M et al., Behav Brain Res (2005) 164: 139-146; Chiba T et al., J Neurosci (2005) 25: 10252-10261). Mice were transcardially perfused with phosphate buffered saline (PBS) and then perfused with 4% paraformaldehyde (PFA). Paraffine-embedded sections or fresh frozen sections, each having a thickness of 10 μm, were prepared. […]
We confirmed STAT3 activation in the brains of mice to which Colivelin had been nasally administered twice every 24 hours (FIGS. 3A-D). […] After 3 weeks of administration (administered every other day), their cognitive functions were analyzed by YM, water-finding task (WFT), and elevated-plus maze (EPM). […]

Tg2576 mice [3] = test: Y-maze test (YM) in Tg2576 mice; type: in vivo; settings: Tg2576 mice 15 months of age, nasal administration for 3 weeks (every other day)
Description: (§2) Tg2576 mice and wild-type control mice at 15 months of age were tested by Y-maze test (YM) (FIG. 4A, left). […] Mice were then subjected to nasal administration of Colivelin or a vehicle for 3 weeks. Subsequently, mice were again tested by Y-maze test. […] However, Colivelin administration seemed to ameliorate tendencies observed in Tg2576 to which the vehicle had been administered, such as delay in transfer latency, shortened 1 stay, and prolonged time spent in open arm (difficult to fear).
(§3) Y-maze test (YM) was performed as described in the document (Yamada M et al., Behav Brain Res (2005) 164: 139-146). The apparatus for YM is composed of three grey plastic arms (40 cm long, 12 cm high, 3 cm wide at the bottom, and 10 cm wide at the top). Mice were each allowed to explore the maze freely under observation for 8 minutes. Spontaneous alternation behavior % (SA %) is an indication of spatial working memory and is calculated using a ratio of the arm choices differing from the previous two choices to total choices during the run. […] The time between the onset of exploration and entering to the alcove (Entering latency), initiation of drinking from the water tube (Drinking latency), and the number of grid-line crossing during the test were measured Elevated-plus maze (EPM) was performed as described in the document (Kawasumi M et al., Eur J Neurosci (2004) 19: 2826-2838). […]

Tg2576 mice [4] = test: Water-finding task (WFT) in Tg2576 mice; type: in vivo; settings: nasal administration for 3 weeks (every other day)
Description: as §2, §3

Tg2576 mice [5] = test: Elevated-plus maze (EPM) in Tg2576 mice; type: in vivo; settings: nasal administration for 3 weeks (every other day)
Description: as §2, §3

STAT3 [6] = test: Anti-phospho-STAT3 staining of hippocampus of Tg2576 and wild-type mice after Colivelin administration; type: in vivo; settings: for STAT3 phosphorylation in Tg2576 hippocampus (anti-phospho-STAT3 staining): Tg2576 mice after 3 weeks nasal administration
Description: The brain sections of Tg2576 mice to which Colivelin had been administered were collected, paraffin-embedded samples were prepared therefrom, and then anti-phospho-STAT3 staining was performed. FIGS. 5A and 5B denote wild-type mice to which a vehicle had been administered; FIGS. 5C and 5D denote wild-type mice to which Colivelin had been administered; FIGS. 5E and 5F denote Tg2576 to which the vehicle had been administered; and FIGS. 5G and 5H denote the hippocampus of Tg2576 to which Colivelin had been administered.
Immunohistochemical analysis was performed as described in the document (Yamada M et al., Behav Brain Res (2005) 164: 139-146; Chiba T et al., J Neurosci (2005) 25: 10252-10261). Mice were transcardially perfused with phosphate buffered saline (PBS) and then perfused with 4% paraformaldehyde (PFA). Paraffine-embedded sections or fresh frozen sections, each having a thickness of 10 μm, were prepared. Immunohistochemical detection was performed with anti-phospho-STAT3 antibody (1:100 dilution). Staining images were visualized with the ABC method (Vectastain Elite Kit, Vector, Calif. U.S.A.) or Tyramide signal enhancer kit (Perkin-Elmer).
We confirmed STAT3 activation in the brains of mice to which Colivelin had been nasally administered twice every 24 hours (FIGS. 3A-D). […] We also confirmed STAT3 phosphorylation in an in vitro experiment using PC12 cells. […] To confirm the therapeutic effect of STAT3 activation, an experiment (nasal administration of Colivelin to mice) was conducted for Tg2576 mice, which had been tested by Y-maze test (YM) and confirmed to have memory disorder at 15 months of age (FIG. 4A, left panel). After 3 weeks of administration (administered every other day), their cognitive functions were analyzed by YM, water-finding task (WFT), and elevated-plus maze (EPM). […] We performed phospho-STAT3 immunostaining using the brains of these mice (FIG. 5). We observed significant loss of phospho-STAT3 immunoreactivity in the control Tg2576 mice to which the vehicle had been administered, compared with the wild-type mice.

STAT3 [7] = settings: reported in Hashimoto 2005, Chiba 2005; cited from earlier work

Row | Molecule | STAT3 phosphorylation (phosphorylated STAT3 vs total STAT3, immunoblot) (STAT3 [1]) | STAT3 phosphorylation in cerebral cortex (anti-phospho-STAT3 staining) (STAT3 [2]) | STAT3 phosphorylation in hippocampus (anti-phospho-STAT3 staining) (STAT3 [2]) | Spontaneous alternation behavior % (SA %), spatial working memory (Tg2576 mice [3]) | WFT indices of memory including drinking latency, entering latency, and crossing (Tg2576 mice [4]) | EPM (transfer latency, 1st stay, time spent in open arms) (Tg2576 mice [5]) | STAT3 phosphorylation in Tg2576 hippocampus (anti-phospho-STAT3 staining) (STAT3 [6]) | STAT3 phosphorylation in Tg2576 hippocampus (anti-phospho-STAT3 staining) (STAT3 [6]; listed as Coliverlin) | STAT3 phosphorylation levels in wild-type hippocampus (anti-phospho-STAT3 staining) (STAT3 [6]; wild-type mice after Colivelin administration) | In vitro STAT3 activation / suppression of cell death (STAT3 [7])
1 | IL-6: interleukin-6 | STAT3 had been phosphorylated; also recorded: STAT3 is phosphorylated | – | – | – | – | – | – | – | – | –
2 | SALLRSIPAPAGASRLLLLTGEIDLP [Colivelin] | STAT3 had been phosphorylated; also recorded: STAT3 is phosphorylated | no significant changes were observed; also recorded: no significant differences were confirmed | Significant STAT3 phosphorylation was observed; also recorded: Hippocampus-predominant STAT3 phosphorylation | significantly improved; also recorded: improvement in cognitive functions was confirmed | significant amelioration was observed; also recorded: improvement in cognitive functions was confirmed | No significant differences were observed; also recorded: no significant changes were observed | levels close to those in the case of wild-type mice to which the vehicle had been administered | recovery of phospho-STAT3 immunoreactivity | slightly increased | activates in vitro STAT3 so as to suppress cell death
3 | B1 | STAT3 had been phosphorylated; also recorded: STAT3 is phosphorylated | – | – | – | – | – | – | – | – | –
